What was measured:
[1] = Drug uptake in food vacuole of asexual blood stage of Plasmodium falciparum D10-ACPLEADER-GFP ring forms infected in human erythrocytes at 150 uM after 30 to 45 mins by mitotracker Red dye based fluorescence microscopic analysis; type: ADME, cell-based
Plasmodium falciparum [2] = test: Antimalarial activity against asexual blood stage of chloroquine-susceptible Plasmodium falciparum D6 infected in human erythrocytes by [3H]-Hypoxanthine uptake assay; type: functional, cell-based
HepG2 = test: Cytotoxicity against human HepG2 cells after 24 hrs by MTS assay; type: cell-based; conditions: HepG2, 24 h
[3] = Drug uptake in mitochondria of asexual blood stage of Plasmodium falciparum D10-ACPLEADER-GFP schizont forms infected in human erythrocytes at 150 uM after 30 to 45 mins by mitotracker Red dye based fluorescence microscopic analysis; type: ADME, cell-based
[4] = Drug uptake in apicoplast of asexual blood stage of Plasmodium falciparum D10-ACPLEADER-GFP ring forms infected in human erythrocytes at 150 uM after 30 to 45 mins by mitotracker Red dye based fluorescence microscopic analysis; type: ADME, cell-based
[5] = Drug uptake in cytoplasm of Plasmodium falciparum D10-ACPLEADER-GFP gametocyte stage 5 infected in human erythrocytes at 150 uM after 30 to 45 mins by mitotracker Red dye based fluorescence microscopic analysis; type: ADME, cell-based
Plasmodium berghei = test: Antiplasmodial activity against liver stage chloroquine-susceptible Plasmodium berghei 1052 C11 infected in HepG2 cells after 44 hrs by TopCount microplate luminescence assay; type: functional, cell-based; conditions: 1052 C11, HepG2, 44 h
[6] = Drug uptake in mitochondria of Plasmodium falciparum D10-ACPLEADER-GFP gametocyte stage 5 infected in human erythrocytes at 150 uM after 30 to 45 mins by mitotracker Red dye based fluorescence microscopic analysis; type: ADME, cell-based
[7] = Drug uptake in food vacuole of asexual blood stage of Plasmodium falciparum D10-ACPLEADER-GFP trophozoite forms infected in human erythrocytes at 150 uM after 30 to 45 mins by mitotracker Red dye based fluorescence microscopic analysis; type: ADME, cell-based
[8] = Drug uptake in human HepG2 cells infected with liver stage chloroquine-susceptible Plasmodium berghei 1052 C11 by mitotracker red dye based fluorescence microscopic analysis; type: ADME, cell-based
Erythrocyte = test: Drug uptake in human erythrocytes after 30 to 45 mins by mitotracker red dye based flow cytometric method; type: ADME, cell-based
[9] = Drug uptake in cytoplasm of asexual blood stage of Plasmodium falciparum D10-ACPLEADER-GFP trophozoite forms infected in human erythrocytes at 150 uM after 30 to 45 mins by mitotracker Red dye based fluorescence microscopic analysis; type: ADME, cell-based
[10] = Drug uptake in relict plastid of asexual blood stage of Plasmodium falciparum D10-ACPLEADER-GFP trophozoite forms infected in human erythrocytes at 150 uM after 30 to 45 mins by mitotracker Red dye based fluorescence microscopic analysis; type: ADME, cell-based
[11] = Drug uptake in nucleus of asexual blood stage of Plasmodium falciparum D10-ACPLEADER-GFP ring forms infected in human erythrocytes at 150 uM after 30 to 45 mins by mitotracker Red dye based fluorescence microscopic analysis; type: ADME, cell-based
[12] = Drug uptake in apicoplast of asexual blood stage of Plasmodium falciparum D10-ACPLEADER-GFP trophozoite forms infected in human erythrocytes at 150 uM after 30 to 45 mins by mitotracker Red dye based fluorescence microscopic analysis; type: ADME, cell-based
[13] = Drug uptake in food vacuole of asexual blood stage of Plasmodium falciparum D10-ACPLEADER-GFP schizont forms infected in human erythrocytes at 150 uM after 30 to 45 mins by mitotracker Red dye based fluorescence microscopic analysis; type: ADME, cell-based
[14] = Drug uptake in mitochondria of Plasmodium falciparum D10-ACPLEADER-GFP gametocyte stage 4 infected in human erythrocytes at 150 uM after 30 to 45 mins by mitotracker Red dye based fluorescence microscopic analysis; type: ADME, cell-based
[15] = Drug uptake in food vacuole of Plasmodium falciparum D10-ACPLEADER-GFP gametocyte stage 4 infected in human erythrocytes at 150 uM after 30 to 45 mins by mitotracker Red dye based fluorescence microscopic analysis; type: ADME, cell-based
[16] = Drug uptake in cytoplasm of Plasmodium falciparum D10-ACPLEADER-GFP gametocyte stage 4 infected in human erythrocytes at 150 uM after 30 to 45 mins by mitotracker Red dye based fluorescence microscopic analysis; type: ADME, cell-based
[17] = Drug uptake in food vacuole of Plasmodium falciparum D10-ACPLEADER-GFP gametocyte stage 5 infected in human erythrocytes at 150 uM after 30 to 45 mins by mitotracker Red dye based fluorescence microscopic analysis; type: ADME, cell-based
[18] = Drug uptake in cytoplasm of asexual blood stage of Plasmodium falciparum D10-ACPLEADER-GFP ring forms infected in human erythrocytes at 150 uM after 30 to 45 mins by mitotracker Red dye based fluorescence microscopic analysis; type: ADME, cell-based
Plasmodium falciparum [19] = test: Antimalarial activity against asexual blood stage of chloroquine-susceptible Plasmodium falciparum 3D7 infected in human erythrocytes by [3H]-Hypoxanthine uptake assay; type: functional, cell-based
[20] = Drug uptake in mitochondria of asexual blood stage of Plasmodium falciparum D10-ACPLEADER-GFP trophozoite forms infected in human erythrocytes at 150 uM after 30 to 45 mins by mitotracker Red dye based fluorescence microscopic analysis; type: ADME, cell-based
[21] = Drug uptake in relict plastid of asexual blood stage of Plasmodium falciparum D10-ACPLEADER-GFP schizont forms infected in human erythrocytes at 150 uM after 30 to 45 mins by mitotracker Red dye based fluorescence microscopic analysis; type: ADME, cell-based
[22] = Drug uptake in mitochondria of asexual blood stage of Plasmodium falciparum D10-ACPLEADER-GFP ring forms infected in human erythrocytes at 150 uM after 30 to 45 mins by mitotracker Red dye based fluorescence microscopic analysis; type: ADME, cell-based
[23] = Drug uptake in relict plastid of asexual blood stage of Plasmodium falciparum D10-ACPLEADER-GFP ring forms infected in human erythrocytes at 150 uM after 30 to 45 mins by mitotracker Red dye based fluorescence microscopic analysis; type: ADME, cell-based
[24] = Drug uptake in cytoplasm of asexual blood stage of Plasmodium falciparum D10-ACPLEADER-GFP trophozoite forms infected in human erythrocytes at 150 uM after 30 to 45 mins in presence of primaquine by mitotracker Red dye based fluorescence microscopic analysis; type: ADME, cell-based
[25] = Drug uptake in cytoplasm of asexual blood stage of Plasmodium falciparum D10-ACPLEADER-GFP schizont forms infected in human erythrocytes at 150 uM after 30 to 45 mins by mitotracker Red dye based fluorescence microscopic analysis; type: ADME, cell-based
Plasmodium falciparum [26] = test: Antimalarial activity against asexual blood stage of chloroquine-resistant Plasmodium falciparum W2 infected in human erythrocytes by [3H]-Hypoxanthine uptake assay; type: functional, cell-based
[27] = Drug uptake in nucleus of asexual blood stage of Plasmodium falciparum D10-ACPLEADER-GFP schizont forms infected in human erythrocytes at 150 uM after 30 to 45 mins by mitotracker Red dye based fluorescence microscopic analysis; type: ADME, cell-based
[28] = Drug uptake in nucleus of asexual blood stage of Plasmodium falciparum D10-ACPLEADER-GFP trophozoite forms infected in human erythrocytes at 150 uM after 30 to 45 mins by mitotracker Red dye based fluorescence microscopic analysis; type: ADME, cell-based
[29] = Drug uptake in apicoplast of asexual blood stage of Plasmodium falciparum D10-ACPLEADER-GFP schizont forms infected in human erythrocytes at 150 uM after 30 to 45 mins by mitotracker Red dye based fluorescence microscopic analysis; type: ADME, cell-based

In the case of `COc1cc(NC(C)CCCNC(=O)CCCc2cc(=O)oc3cc(O)ccc23)c2ncccc2c1` (stereo not drawn), the Drug uptake [1] is reported as “Not Active”, the IC50 (Plasmodium falciparum [2]) is reported as 4.47 µM and the IC50 (HepG2) is reported as 44.5 µM. For the same compound, the Drug uptake [3] was “Not Active”, the Drug uptake [4] was “Not Active” and the Drug uptake [5] was “Active”. The IC50 (Plasmodium berghei) was 20.7 µM, the Drug uptake [6] was “Not Active” and the Drug uptake [7] was “Not Active”. For the same compound, the Drug uptake [8] was “Not Active”, the Drug uptake (Erythrocyte) was “Not Active” and the Drug uptake [9] was “Active”. For the same compound, the Drug uptake [10] was “Not Active”, the Drug uptake [11] was “Not Active” and the Drug uptake [12] was “Not Active”. The Drug uptake [13] was “Not Active”, the Drug uptake [14] was “Not Active” and the Drug uptake [15] was “Not Active”. For the same compound, the Drug uptake [16] was “Active”, the Drug uptake [17] was “Not Active” and the Drug uptake [18] was “Active”. For the same compound, the IC50 (Plasmodium falciparum [19]) was 10.5 µM, the Drug uptake [20] was “Not Active” and the Drug uptake [21] was “Not Active”. The Drug uptake [22] was “Not Active”, the Drug uptake [23] was “Not Active” and the Drug uptake [24] was “Not Active”. For the same compound, the Drug uptake [25] was “Active”, the IC50 (Plasmodium falciparum [26]) was 3.52 µM and the Drug uptake [27] was “Not Active”. For the same compound, the Drug uptake [28] was “Not Active” and the Drug uptake [29] was “Not Active”.
For `O=c1ccc2ccccc2o1` [COUMARIN], the Drug uptake (Erythrocyte) was “Not Active”.
Work on `COc1cc(NC(C)CCCN)c2ncccc2c1` (stereo not drawn) [PRIMAQUINE] yielded an IC50 (Plasmodium falciparum [2]) of 5.16 µM, an IC50 (HepG2) of 101 µM and an IC50 (Plasmodium berghei) of 17.2 µM. The IC50 (Plasmodium falciparum [19]) was 5.77 µM and the IC50 (Plasmodium falciparum [26]) was 2.35 µM.

— ChEMBL document CHEMBL4043245, “Synthesis, characterization, and cellular localization of a fluorescent probe of the antimalarial 8-aminoquinoline primaquine” (Bioorg Med Chem Lett, 2017)
